# Test results: patent US10301298B2, “Methods, compounds, and compositions for the treatment of angiotensin-related diseases” (University of Southern California, priority 2013, dated 2019)
# Where two headings read alike, the source gives them in different places.
# What was measured:
# db/db mice [1] = assay: Bone marrow cell counts and progenitor colonies in db/db mice; assay type: in vivo; conditions: 500 mcg/kg/day subcutaneously, 14 days
# Procedure: The femurs and tibia were collected from db/db mice treated 500 mcg/kg/day Ang(1-7) or Compound 7 subcutaneously for 14 days were euphanized and the bone marrow were collected by flushing with PBS containing 2% fetal calf serum. After collection of the bone marrow, the red blood cells will be lysed with a hypotonic solution (described above), mixed with 0.04% trypan blue and the number of nucleated cells was assessed by hematocytometer under light microscopy. Aliquots of cells were then resuspended at 1×10^6 cells/ml (GM and GEMM, bone marrow), 1.5×10^6 cells/ml (BFU-E, bone marrow). One hundred μ1 of each suspension was added to 900 μl of semisolid medium containing 0.9% methyl cellulose in Iscove's MDM, 15% fetal calf serum, 1% bovine serum albumin, 10 μg/ml bovine pancreatic insulin, 200 μg/ml human transferrin, 10^−4 M 2-mercaptoethanol, 2 mM glutamine, 10 ng/ml recombinant murine interleukin 3, 10 ng/ml recombinant human interleukin 6, 50 ng/ml recombinant murine stem cell factor and 3 units/ml erthropoietin. This mixture was then added to duplicate wells of a 24 well plate. The cultures were then placed at 37° C. in a humidified atmosphere of 5% CO2 in air. At day 14, the number of progenitor colonies formed was enumerated under phase contrast microscopy.
# The bone marrow cells were also cultured to assess the number of MSCs by a CFU—F assay. 2.5×10^5 cells/ml, 2 ml per well, were diluted into Mesencult medium (Stem Cell Technologies, Vancouver, BC, Canada) and 2 mL were placed in each well of a 24 well plate. The cultures were then incubated at 37° C. in a humidified atmosphere of 5% CO2 in air. At days 2, 5 and 8, the number of progenitor colonies formed was enumerated under phase contrast microscopy.
# db/db mice [2] = assay: Fasting blood glucose in db/db mice; assay type: in vivo
# Procedure: Mice homozygous for the diabetes spontaneous mutation Lepr^db (BKS.Cg-Dock7^m+/+Lepr^db/J), which is an obese model of type 2 diabetes as a consequence of truncation of the leptin receptor, have verified plasma glucose levels >500 mg/dL prior to initiation of treatment. Food and water were available ad libitum, and all mice were kept on a 12-hour light/dark cycle. BKS.Cg-Dock7^m+/+Lepr^db/J mice and their heterozygous controls (n=6/group) were administered either saline (control), Ang-(1-7) (500 mcg/kg/day), or Compound 7 500 mcg/kg/day for two weeks by subcutaneous (SC) injection. Mice were fasted overnight prior to assessment of plasma glucose levels. Blood was taken from the saphenous vein and tested for glucose levels by a glucometer.
# MDA MB 231 = assay: MTT cellular viability of MDA MB 231 breast cancer cell line; assay type: cell-based; conditions: for IC50: Homo sapiens, MDA-MB-231, MTT
# Procedure: Compound 7 was evaluated for its ability to modulate cancer proliferation using MDA MB 231 breast cancer cell line. MDA MB 231 was treated with increasing concentration of Compound 7 ranged from 1×10^−12 to 1×10^−3 M, where the cells were incubated for 48 hours. After the incubation, cellular viability was evaluated using 3-(4,5-dimethylthiazol-2-yl)-2,5-diphenyltetrazolium bromide or MTT, where viable cells are able to reduce MTT to formazan and form an insoluble crystal. The solubilized crystal can be spectrometrically determine, where cellular viability is compared to cells treated with vehicle. The cellular viability of MDA MB 231 is summarized (FIG. 9). […] Rather at 1×10^−12 M ([…]) of Compound 7, the cellular proliferation was only 70% of vehicle treated.
# [3] = Oral bioavailability in C57Bl/6 mice; assay type: in vivo; conditions: 500 μg/kg, oral gavage vs intravenous
# Procedure: Compound 7 was evaluated for oral bioavailability at 500 μg/kg in C57Bl/6 mice. The drug was given by intravenous injection or by oral gavage and blood was collected at 0.5, 1, 2, 4, 8, 24 hours into heparinized tubes. The level of drug in the blood was measured by liquid chromatograph-mass spectrometry. Bioavailability was determined using the following ratio AUCIG/AUCIV (FIG. 10).
smiles,measurement,setting,value
"CCCCOC(=O)NS(=O)(=O)c1ccc(OC(F)(F)F)cc1-c1ccc(Cn2ccnc2)cn1 [Compound 7, butyl (2-(5-((1H-imidazol-1-yl)methyl)pyridin-2-yl)-4-(trifluoromethoxy)phenyl)sulfonylcarbamate]",bone marrow counts,db/db mice [1],increase bone marrow counts
same,"increase in bone marrow cell number, CFU-GEMM, CFU-GM, BFU-E and MSC",db/db mice [1],comparable to Ang(1-7)
same,bone marrow counts,db/db mice [1]; listed as compound 7,increased the bone marrow counts
same,reduction of peripheral glucose versus vehicle or Ang(1-7) treated mice,"db/db mice [2]; 500 μg/kg/day, 14 days",> 40%
same,reduction of FBG in terms of the excess blood glucose over non-diabetic controls,"db/db mice [2]; 500 mcg/kg/day SC, two weeks",72%
same,fasting blood glucose (FBG) versus db/db mice treated with saline,"db/db mice [2]; 500 mcg/kg/day SC, two weeks, p<0.05",significantly lower
same,IC50,"MDA MB 231; 48 hours, read-out: IC50 (MDA MB 231 proliferation)",58 nM
same,IC50,"MDA MB 231; 48 hours, read-out: IC50 (MDA MB 231 viability, Hill-slope analysis)",58.2 nM
same,effect on breast cancer cell proliferation,"MDA MB 231; MDA MB 231, 1×10^−12 to 1×10^−3 M",did not increase breast cancer cell proliferation
same,"cellular proliferation, % of vehicle treated","MDA MB 231; MDA MB 231, at 1×10^−12 M, 48 hours",70%
same,oral bioavailability (AUCIG/AUCIV),[3],30%
